# Experiments:
# [1] = system: PDRE-dependent luciferase gene transcription; type: cell-based, Saccharomyces cerevisiae; conditions: 40 μM ketoconazole; for Luciferase activity (5 μM + keto) (% DMSO + keto): 5 μM compound; for Luciferase activity (50 μM + keto) (% DMSO + keto): 50 μM compound
# [2] = system: Candida parapsilosis DSY473; test: Broth dilution MIC; conditions: ATCC22019
# Procedure: (§1) Antifungal susceptibility testing was carried out using broth dilution assays which examined effects of two-fold dilutions of compounds on cellular growth. The minimum inhibitory concentration (MIC) was defined as the drug concentration at which the optical density was equal to or decreased more than 50% from that of the drug-free culture.
# Candida krusei DSY471 = test: Broth dilution MIC; conditions: Pichia kudriavzevii, ATCC6258
# Procedure: as §1
# Candida glabrata DSY562 = test: Broth dilution MIC; conditions: Nakaseomyces glabratus
# Procedure: as §1
# [3] = system: Candida tropicalis DSY472; test: Broth dilution MIC; conditions: ATCC75
# Procedure: as §1
# Candida albicans SC5314 = test: Broth dilution MIC
# Procedure: as §1
# [4] = system: Saccharomyces cerevisiae DSY2094; test: Broth dilution MIC
# Procedure: as §1
# [5] = system: CgCDR1 transcription (CgPdr1 target); test: Transcription assay, quantitative real-time PCR of CgPdr1 target genes; type: cell-based, Candida glabrata
# Candida albicans DSY2621 = test: Broth dilution MIC
# Procedure: as §1
# Candida glabrata DSY565 = test: Broth dilution MIC; conditions: Nakaseomyces glabratus
# Procedure: as §1
# CgGal11A KIX domain = target: T1, CgGal11A KIX domain (Candida glabrata, UniProt Q6FRS9); test: Fluorescence polarization (FP) binding/competition assay, CgPdr1 AD30 with CgGal11A KIX; conditions: compared with iKIX1
# T1 construct: other: compared with iKIX1; other: GST-CgGal11A KIX 3 μM, 30 nM FITC-CgPdr1 AD30; Kd of CgPdr1 AD30 for CgGal11A KIX domain; other: FP titration, 30 nM FITC-CgPdr1 AD30; Kd of the CgPdr1 AD for the CgGal11A KIX domain; apparent Ki; fused on or other part: N-terminal His6-GST tag
# T1 sequence (Q6FRS9 whole entry, looked up, the tested form may be a part): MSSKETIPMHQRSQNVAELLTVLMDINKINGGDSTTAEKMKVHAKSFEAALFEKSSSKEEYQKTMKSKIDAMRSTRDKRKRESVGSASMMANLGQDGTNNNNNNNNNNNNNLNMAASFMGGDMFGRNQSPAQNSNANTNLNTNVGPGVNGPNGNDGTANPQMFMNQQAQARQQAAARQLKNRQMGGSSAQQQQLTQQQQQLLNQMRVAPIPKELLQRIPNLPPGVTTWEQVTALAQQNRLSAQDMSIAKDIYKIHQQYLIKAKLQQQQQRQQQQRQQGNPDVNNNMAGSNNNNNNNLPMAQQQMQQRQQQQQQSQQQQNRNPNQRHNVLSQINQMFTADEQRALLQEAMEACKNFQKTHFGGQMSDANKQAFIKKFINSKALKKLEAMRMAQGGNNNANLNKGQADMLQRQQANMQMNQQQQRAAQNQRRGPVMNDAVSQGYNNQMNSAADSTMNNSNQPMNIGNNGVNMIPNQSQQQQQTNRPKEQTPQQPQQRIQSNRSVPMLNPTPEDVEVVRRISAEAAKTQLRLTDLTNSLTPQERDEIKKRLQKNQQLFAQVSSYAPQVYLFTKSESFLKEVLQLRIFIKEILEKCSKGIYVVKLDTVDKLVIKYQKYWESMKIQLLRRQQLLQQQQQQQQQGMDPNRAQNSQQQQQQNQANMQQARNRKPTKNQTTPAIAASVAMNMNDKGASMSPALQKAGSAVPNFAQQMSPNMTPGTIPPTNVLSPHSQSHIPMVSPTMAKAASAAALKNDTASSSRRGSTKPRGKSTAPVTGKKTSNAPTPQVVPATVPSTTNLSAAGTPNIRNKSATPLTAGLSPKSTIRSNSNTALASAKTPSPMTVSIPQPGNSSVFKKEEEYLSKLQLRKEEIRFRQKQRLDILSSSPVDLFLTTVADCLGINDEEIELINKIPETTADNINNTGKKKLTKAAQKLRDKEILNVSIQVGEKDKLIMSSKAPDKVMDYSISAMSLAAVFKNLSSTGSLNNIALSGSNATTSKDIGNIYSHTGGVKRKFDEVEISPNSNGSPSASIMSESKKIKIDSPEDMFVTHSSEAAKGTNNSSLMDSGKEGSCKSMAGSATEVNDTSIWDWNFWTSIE
# Procedure: A fluorescein-tagged 30 amino acid C-terminal activation domain of CgPdr1 (FITC-[…] (SEQ ID NO: 1)) CgPdr1 AD30 was purchased as a synthetic peptide from Pepide2.0. The CgGal11A KIX domain was expressed as a His6-GST fusion protein and purified by affinity chromatography with Ni-NTA resin (Qiagen) and size exclusion chromatography (Sephadex 75, Pharmacia). […] For small molecule screening, fluorescein-CgPdr1 AD30 was held at a concentration of 30 nM and the GST-tagged CgGal11A KIX was at a concentration of 1 μM (above the Kd). The screen was carried out in duplicate and the volume in each well was 25 μL.
# To measure the dissociation constant (Kd) of CgPdr1 AD30, FITC labeled CgPdr1 AD30 was held at a concentration of 30 nM and the GST-tagged CgGal11A KIX was prepared with concentrations ranging from 0 to 300 μM. The IC50 for iKIX-1 binding was measured with GST-tagged CgGal11A KIX held at a constant 3 μM concentration, iKIX-1 was titrated from 0 to 1000 μM and 30 nM FITC-labeled CgPdr1 AD30 was added subsequently with an HP D300 digital dispenser (Tecan Group. Maennerdorf, Switzerland). All experiments were carried out in duplicate and the s.d. is reported at each point on the plot.
# The FP titration curve of the CgPdr1 AD30 was fitted to GraphPad Prisms (La Jolla, Calif., USA) One site-total binding equation (equation 1). […]
# [6] = system: C. glabrata CgPDR1 wild-type and gain-of-function mutant strains; test: Spot plating on gradient plates with azole; type: cell-based, Candida glabrata
# [7] = system: C. glabrata PDR1 wild-type or PDR1^L280F strains; test: Galleria mellonella survival assay; type: in vivo; conditions: […]
# C. glabrata [8] = test: Mouse disseminated fungal burden model; type: in vivo; conditions: mouse, in vivo
# C. glabrata [9] = type: in vivo, mouse; conditions: single agent 100 mg/kg/day i.p.
# [10] = system: C. glabrata adherence to CHO-Lec2 cells; test: Yeast adherence to epithelial CHO-Lec2 cells; conditions: PDR1^L280F mutant, 30 μM iKIX1 or 40 μM ketoconazole
Structure (SMILES),Luciferase activity (5 μM + keto) (% DMSO + keto) [1],Luciferase activity (50 μM + keto) (% DMSO + keto) [1],MIC [2],MIC (Candida krusei DSY471),MIC (Candida glabrata DSY562),MIC [3],MIC (Candida albicans SC5314),MIC [4],MIC (Candida albicans DSY2621),MIC (Candida glabrata DSY565),also measured
N#CC(C(=O)NNC(=S)Nc1ccc(Cl)c(Cl)c1)c1ccccc1 (stereo not drawn),86 % DMSO + keto,38 % DMSO + keto,,,,,,,,,
COc1cc(NC(=S)NNC(=O)CC#N)cc(Cl)c1Cl,52 % DMSO + keto,26 % DMSO + keto,,,,,,,,,
"N#CCC(=O)NNC(=S)NCc1ccccc1 [Compound A02, reference compound]",,,> 100 µM,> 100 µM,> 100 µM,> 100 µM,> 100 µM,> 100 µM,> 100 µM,> 100 µM,"ketoconazole-induced luciferase activity (in words) [1]: abolishes activity; ketoconazole-induced CgPdr1 target gene (CgCDR1) transcription (in words) ([5]; CgPDR1 wild-type strain (SFY114), pre-treatment then 40 μM ketoconazole): abolishes activity; IC50 in the FP assay (in words) (CgGal11A KIX domain): increases the IC50; synergistic C. glabrata cell growth inhibition with azole antifungal agents [6]: abolishes activity"
"N#CCC(=O)NNC(=S)Nc1ccc(Cl)c(F)c1 [Compound A03, N-(4-Chloro-3-fluorophenyl)-2-(2-cyanoacetyl)hydrazinecarbothoamide]",,,50 µM,12.5 µM,12.5 µM,12.5 µM,25 µM,12.5 µM,25 µM,25 µM,
"N#CCC(=O)NNC(=S)Nc1ccc(C(F)(F)F)c(Cl)c1 [Compound A07, N-(3-Chloro-4-(trifluoromethyl)phenyl)-2-(2-cyanoacetyl) hydrazinecarbothioamide]",,,6.25 µM,6.25 µM,3.12 µM,3.25 µM,3.25 µM,3.12 µM,3.25 µM,3.12 µM,
N#CCC(=O)NNC(=S)Nc1cc(Cl)cc(Cl)c1 [Compound A16],,,12.5 µM,3.25 µM,3.12 µM,3.25 µM,6.25 µM,3.12 µM,6.25 µM,6.25 µM,
"N#CC1(C(=O)NNC(=S)Nc2ccc(Cl)c(Cl)c2)CC1 [Compound A18, 2-(1-Cyanocyclopropanecarbonyl)-N-(3,4-dichlorophenyl)hydrazinecarbothioamide]",,,25 µM,6.25 µM,6.25 µM,12.5 µM,6.25 µM,12.5 µM,6.25 µM,12.5 µM,
N#CCC(=O)NNC(=S)Nc1cc(Cl)cc(C(F)(F)F)c1 [Compound A52-8],,,12.5 µM,3.12 µM,3.12 µM,3.12 µM,3.12 µM,3.12 µM,3.12 µM,6.25 µM,
N#CC1(C(=O)NNC(=S)Nc2ccc(Cl)c(Cl)c2)CCCCC1 [DFCI-1],,,12.5 µM,3.12 µM,6.25 µM,6.25 µM,6.25 µM,6.25 µM,12.5 µM,6.25 µM,
N#CC1(C(=O)NNC(=S)Nc2ccc(Cl)c(Cl)c2)CC1 [drawing 45],62 % DMSO + keto,25 % DMSO + keto,,,,,,,,,"CgCDR1 qRT-PCR (30 μM in PDR1 WT) (% DMSO + keto) ([5]; 30 μM compound, PDR1 WT, ketoconazole induced): 5 % DMSO + keto"
N#CCC(=O)NNC(=S)Nc1ccc(Cl)c(F)c1 [drawing 46],54 % DMSO + keto,30 % DMSO + keto,,,,,,,,,
N#CCC(=O)NNC(=S)Nc1ccc(C(F)(F)F)c(Cl)c1 [drawing 47],40 % DMSO + keto,21 % DMSO + keto,,,,,,,,,
N#CCC(=O)NNC(=S)Nc1cc(Cl)cc(Cl)c1 [drawing 48],45 % DMSO + keto,25 % DMSO + keto,,,,,,,,,
N#CCC(=O)NNC(=S)Nc1cc(Cl)cc(C(F)(F)F)c1 [drawing 49],77 % DMSO + keto,28 % DMSO + keto,,,,,,,,,
N#CC1(C(=O)NNC(=S)Nc2ccc(Cl)c(Cl)c2)CCCCC1 [drawing 51],53 % DMSO + keto,14 % DMSO + keto,,,,,,,,,
"OC(Cn1cncn1)(Cn1cncn1)c1ccc(F)cc1F [fluconazole, reference compound]",,,,,,,,,,,survival of G. mellonella larvae ([7]; fluconazole 50 mg/kg alone): sensitive to fluconazole alone; survival of G. mellonella larvae ([7]; single agent (fluconazole 50 mg/kg or iKIX1 25 mg/kg) vs vehicle): did not significantly increase survival; tissue fungal burden (C. glabrata [8]; 25 mg/kg): poorly reduced tissue burden; tissue fungal burden in the kidney and spleen (C. glabrata [8]; 100 mg/kg): significantly reduced tissue fungal burden; fungal load in bladder and kidney (C. glabrata [9]): significantly reduces fungal burden in the bladder and kidney
"CC(=O)N1CCN(c2ccc(OCC3COC(Cn4ccnc4)(c4ccc(Cl)cc4Cl)O3)cc2)CC1 (stereo not drawn) [ketoconazole, reference compound]",,,,,,,,,,,relative adherence to epithelial cells [10]: reduce adherence; relative adherence to epithelial cells ([10]; listed as Ketoconazole): reduced relative adherence to levels comparable to a PDR1 wild-type strain

# From patent US11136291B2, “Antifungal compounds and uses thereof” (Dana-Farber Cancer Institute, Inc., priority 2016, dated 2021)
